From patent publication US20210238225A1, “PEPTIDOMIMETIC INHIBITORS OF THE PEPTIDYL-PROLYL CIS/TRANS ISOMERASE (PIN1)” (DANA-FARBER CANCER INSTITUTE, INC., priority 2018, published 2021)
Read-outs that look alike come from different tables or passages of the source. Non-standard residues stand in square brackets, D forms with d. Residues, ends and D or L forms follow the SMILES beside them. *: point of attachment. Ala(9-anthryl) = N[C@@H](Cc1c2ccccc2cc2ccccc12)C(=O)O; Bpa = N[C@@H](Cc1ccc(C(=O)c2ccccc2)cc1)C(=O)O; 2Nal = N[C@@H](Cc1ccc2ccccc2c1)C(=O)O; Met(O2) = CS(=O)(=O)CC[C@H](N)C(=O)O; Bta = N[C@@H](Cc1csc2ccccc12)C(=O)O; NH(4-Me-benzyl) = Cc1ccc(CN*)cc1; NMeF = CN[C@@H](Cc1ccccc1)C(=O)O; hPhe = N[C@@H](CCc1ccccc1)C(=O)O; NMeE = CN[C@@H](CCC(=O)O)C(=O)O; Cit = NC(=O)NCCC[C@H](N)C(=O)O; aThr = C[C@H](O)[C@H](N)C(=O)O; Pip = O=C(O)[C@@H]1CCCCN1; Piperidide = C1CCN(*)CC1; ClAc = O=C(CCl)*; X1 = O=C(C1CO1)*

Biological target: Pin1 (GST-Pin1) (Homo sapiens, UniProt Q13526)
Sequence (Q13526 whole entry): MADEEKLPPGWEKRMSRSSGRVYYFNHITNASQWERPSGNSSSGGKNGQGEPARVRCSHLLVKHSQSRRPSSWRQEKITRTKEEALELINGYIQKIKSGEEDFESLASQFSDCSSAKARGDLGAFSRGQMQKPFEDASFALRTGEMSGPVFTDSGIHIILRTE
Assay: Fluorescence polarization (FP) assay, binding to Pin1
Conditions: competition with fluorescein-labeled peptide probe, 12 hours pre-incubation at 4° C., Kenakin Ki equation

Structure (SMILES) | Ki (read-out: Ki, μM (FP Assay)) | Ki (Ki, μM (FP Assay))
NC(=O)NCCC[C@H](NC(=O)[C@H](Cc1ccc(C(=O)c2ccccc2)cc1)NC(=O)[C@@H]1CCCCN1C(=O)[C@H](CCC(=O)O)NC(=O)CCl)C(N)=O [Compound 2-17, (S)-5-((S)-2-(((S)-1-(((S)-1-Amino-1-oxo-5-ureidopentan-2-yl)amino)-3-(4-benzoylphenyl)-1-oxopropan-2-yl)carbamoyl)piperidin-1-yl)-4-(2-chloroacetamido)-5-oxopentanoic acid] (ClAc-E[Pip][Bpa][Cit]-NH2) | 0.11 µM | 
CN(C(=O)CCl)[C@@H](Cc1ccccc1)C(=O)N1CCCC[C@H]1C(=O)N[C@@H](Cc1csc2ccccc12)C(=O)N[C@@H](CCCNC(N)=O)C(=O)N1CCCCC1 [Compound 11-42, (S)—N—((S)-3-(Benzo[6]thiophen-3-yl)-1-oxo-1-(((S)-1-oxo-1-(piperidin-1-yl)-5-ureidopentan-2-yl)amino)propan-2-yl)-1-(N-(2-chloroacetyl)-N-methyl-L-phenylalanyl)piperidine-2-carboxamide] (ClAc-[NMeF][Pip][Bta][Cit]-Piperidide) | 0.109 µM | 
CC(=O)N[C@@H](CCC(=O)O)C(=O)N1CCCC[C@H]1C(=O)N[C@@H](Cc1c[nH]c2ccccc12)C(=O)N[C@@H](CCCNC(N)=O)C(N)=O [Compound 2-33, (S)-4-Acetamido-5-((S)-2-(((S)-1-(((S)-1-amino-1-oxo-5-ureidopentan-2-yl)amino)-3-(1H-indol-3-yl)-1-oxopropan-2-yl)carbamoyl)piperidin-1-yl)-5-oxopentanoic acid] (Ac-E[Pip]W[Cit]-NH2) | > 10 µM | 
N=C(N)NCCC[C@H](NC(=O)[C@H](Cc1c2ccccc2cc2ccccc12)NC(=O)[C@@H]1CCCCN1C(=O)[C@H](CCC(=O)O)NC(=O)CCl)C(N)=O [Compound 2b-11, (S)-5-((S)-2-(((S)-1-(((S)-1-Amino-5-guanidino-1-oxopentan-2-yl)amino)-3-(anthracen-9-yl)-1-oxopropan-2-yl)carbamoyl)piperidin-1-yl)-4-(2-chloroacetamido)-5-oxopentanoic acid] (ClAc-E[Pip][Ala(9-anthryl)]R-NH2) | 0.609 µM | 
Cc1ccc(CNC(=O)[C@H](CCCNC(N)=O)NC(=O)[C@H](Cc2c[nH]c3ccccc23)NC(=O)[C@@H]2CCCCN2C(=O)[C@H](Cc2ccccc2)NC(=O)C2CO2)cc1 (stereo partly drawn) [Compound 13, (2S)—N—((S)-3-(1H-Indol-3-yl)-1-(((S)-1-((4-methylbenzyl)amino)-1-oxo-5-ureidopentan-2-yl)amino)-1-oxopropan-2-yl)-1-((oxirane-2-carbonyl)-L-phenylalanyl)piperidine-2-carboxamide] (X1-F[Pip]W[Cit]-{NH(4-Me-benzyl)}) | 4.43 µM | 
NC(=O)C[C@H](NC(=O)[C@H](Cc1ccc2ccccc2c1)NC(=O)[C@@H]1CCCCN1C(=O)[C@H](CCC(=O)O)NC(=O)CCl)C(N)=O [Compound 2-8, (S)-4-(2-Chloroacetamido)-5-((S)-2-(((S)-1-(((S)-1,4-diamino-1,4-dioxobutan-2-yl)amino)-3-(naphthalen-2-yl)-1-oxopropan-2-yl)carbamoyl)piperidin-1-yl)-5-oxopentanoic acid] (ClAc-E[Pip][2Nal]N-NH2) | 0.13 µM | 
CN(C(=O)CCl)[C@@H](CCC(=O)O)C(=O)N1CCCC[C@H]1C(=O)N[C@@H](Cc1c[nH]c2ccccc12)C(=O)N[C@@H](Cc1ccc(O)cc1)C(N)=O [Compound 2-31, (S)-5-((S)-2-(((S)-1-(((S)-1-Amino-3-(4-hydroxyphenyl)-1-oxopropan-2-yl)amino)-3-(1H-indol-3-yl)-1-oxopropan-2-yl)carbamoyl)piperidin-1-yl)-4-(2-chloro-N-methylacetamido)-5-oxopentanoic acid] (ClAc-[NMeE][Pip]WY-NH2) | 0.07 µM | 
C[C@H](O)[C@H](NC(=O)CCl)C(=O)N1CCCC[C@H]1C(=O)N[C@@H](Cc1c[nH]c2ccccc12)C(=O)N[C@@H](Cc1ccc(O)cc1)C(N)=O [Compound 2-26, (S)—N—((S)-1-(((S)-1-Amino-3-(4-hydroxyphenyl)-1-oxopropan-2-yl)amino)-3-(1H-indol-3-yl)-1-oxopropan-2-yl)-1-((2-chloroacetyl)-L-allothreonyl)piperidine-2-carboxamide] (ClAc-[aThr][Pip]WY-NH2) | 0.299 µM | 
CS(=O)(=O)CC[C@H](NC(=O)CCl)C(=O)N1CCCC[C@H]1C(=O)N[C@@H](Cc1ccc2ccccc2c1)C(=O)N[C@@H](CCCNC(N)=O)C(N)=O [Compound 2-14, (S)—N—((S)-1-(((S)-1-Amino-1-oxo-5-ureidopentan-2-yl)amino)-3-(naphthalen-2-yl)-1-oxopropan-2-yl)-1-((S)-2-(2-chloroacetamido)-4-(methylsulfonyl)butanoyl)piperidine-2-carboxamide] (ClAc-[Met(O2)][Pip][2Nal][Cit]-NH2) | 0.13 µM | 
COC(=O)CC[C@H](NC(=O)C1CO1)C(=O)N1CCCC[C@H]1C(=O)N[C@@H](Cc1c[nH]c2ccccc12)C(=O)N[C@@H](CCCNC(N)=O)C(N)=O (stereo partly drawn) [Compound 3, Methyl (4S)-5-((S)-2-(((S)-1-(((S)-1-amino-1-oxo-5-ureidopentan-2-yl)amino)-3-(1H-indol-3-yl)-1-oxopropan-2-yl)carbamoyl)piperidin-1-yl)-4-(oxirane-2-carboxamido)-5-oxopentanoate] (X1-E(OMe)[Pip]W[Cit]-NH2) | 4.17 µM | 
COC(=O)CC[C@H](NC(=O)CCl)C(=O)N1CCCC[C@H]1C(=O)N[C@@H](Cc1c[nH]c2ccccc12)C(=O)N[C@@H](Cc1ccccc1)C(N)=O [Compound 2-23, Methyl (S)-5-((S)-2-(((S)-1-(((S)-1-Amino-1-oxo-3-phenylpropan-2-yl)amino)-3-(1H-indol-3-yl)-1-oxopropan-2-yl)carbamoyl)piperidin-1-yl)-4-(2-chloroacetamido)-5-oxopentanoate] (ClAc-E(OMe)[Pip]WF-NH2) | 0.231 µM | 
CN(C(=O)CCl)[C@@H](Cc1ccccc1)C(=O)N1CCCC[C@H]1C(=O)N[C@@H](Cc1c[nH]c2ccccc12)C(=O)N1CCCCC1 [Compound 11-45, (S)—N—((S)-3-(1H-indol-3-yl)-1-oxo-1-(piperidin-1-yl)propan-2-yl)-1-(N-(2-chloroacetyl)-N-methyl-L-phenylalanyl)piperidine-2-carboxamide] (ClAc-[NMeF]-[Pip]-Trp-Piperidide) | > 1 µM | 
NC(=O)NCCC[C@H](NC(=O)[C@H](Cc1c[nH]c2ccccc12)NC(=O)[C@@H]1CCCCN1C(=O)[C@H](CCc1ccccc1)NC(=O)CCl)C(=O)N1CCCCC1 [Compound 11-40, (S)—N—((S)-3-(1H-Indol-3-yl)-1-oxo-1-(((S)-1-oxo-1-(piperidin-1-yl)-5-ureidopentan-2-yl)amino)propan-2-yl)-1-((S)-2-(2-chloroacetamido)-4-phenylbutanoyl)piperidine-2-carboxamide] (ClAc-[hPhe][Pip]W[Cit]-Piperidide) |  | 0.087 µM
NC(=O)CC[C@H](NC(=O)[C@H](Cc1ccc2ccccc2c1)NC(=O)[C@@H]1CCCCN1C(=O)[C@@H](CCC(=O)O)NC(=O)CCl)C(N)=O [Compound 2b-4, (R)-4-(2-Chloroacetamido)-5-((S)-2-(((S)-1-(((S)-1,5-diamino-1,5-dioxopentan-2-yl)amino)-3-(naphthalen-2-yl)-1-oxopropan-2-yl)carbamoyl)piperidin-1-yl)-5-oxopentanoic acid] (ClAc-[dE][Pip][2Nal]Q-NH2) | > 10 µM | 
